The text below walks through data of article PMC9499324, “Glycyrrhizic Acid Derivatives Bearing Amino Acid Residues in the Carbohydrate Part as Dengue Virus E Protein Inhibitors: Synthesis and Antiviral Activity” (International Journal of Molecular Sciences, 2022).

Series [1] concerns DENV2. Description: DENV2-induced cytopathic effect (CPE) reduction screening in Vero E6 cells. Format: cell-based, Dengue virus type 2. The note with it: Dengue virus, Vero C1008; 10 μM compound, DENV2, Vero E6 cells, 96 h; read-out: CPE Reduction at 10 μM. How it is done:
(§1) In the antiviral screening assay, each tested GL conjugate at 10 μM was used to survey the anti-DENV activity in Vero E6 cells using cytopathic effect (CPE) and infectivity reduction assays as described in our prior report. In CPE and infectivity reduction assays, Vero E6 cells were infected by DENV2 at an MOI of 0.005 and simultaneously treated 10 μM of indicated GL conjugate for 96 h, and then photographed by microscope for examining the levels of DENV2-induced CPE in infected cells treated with or without GL conjugate. Meanwhile, the cells were further performed using immunofluorescence assay (IFA) with anti-DENV NS4B antibodies (GeneTex, Inc., Hsinchu, Taiwan) and anti-rabbit IgG antibodies conjugated with AF555 (ThermoFisher, Waltham, MA, USA) plus DAPI (4′,6-diamidino-2-phenylindole) nuclear staining. Finally, the DENV-2 infectivity was measured according to the ratio of DENV NS4B-positive cells to DAPI-stained cells in the well of mock-treated or treated cells, as described in [45, 59, 60].
On the technique in general: Protection from cytopathic effect is a common read-out in antiviral testing.

For series [2], the system named is DENV2. Nature of the series: DENV2 infectivity inhibition (anti-NS4B immunofluorescence) in Vero E6 cells. The series is classed as cell-based, Dengue virus type 2. The note with it: Dengue virus; for inhibition at 10 µM: Vero C1008, 10 μM compound, DENV2, Vero E6 cells, 96 h, read-out: Inhibition (%) at 10 μM (reduction of NS4B-positive cells).
Text: as §1, with “In the antiviral screening assay, each tested GL conjugate at 10 μM was used to survey the anti-DENV activity in Vero E6 cells using cytopathic effect (CPE) and infectivity reduction assays as described in our prior report.” left out, “[…],” for “Vero E6 cells were infected by DENV2 at an MOI of 0.005 and simultaneously treated 10 μM of indicated GL conjugate for 96 h,”

The nature of series [3]: MTT cytotoxicity assay in Vero E6 cells. The conditions noted are these: African green monkey. The series is classed as cell-based. How it is done:
(§2) Vero E6 cells and A549 cells (5 × 10^3 cells/well) were treated with the serial dilution of GL conjugates at 0, 0.1, 10, 20, and 50 μM for examining the in vitro cytotoxicity of tested compounds. After 96-h incubation at 37 °C, the cells were incubated with MTT (3-(4,5-Dimethylthiazol-2-yl)-2,5-Diphenyltetrazolium Bromide) solution for another 4 h incubation, mixed with DMSO for 15 min after the removal of media, and then measured the absorbance at 570 nm. The viability (%) of treated cells was quantified according to the reduced ability of MTT. Finally, the concentration for reducing 50% cell viability (the 50% cytotoxic concentration, CC50) was determined by regression analysis of the concentration–response survival curve.
(In general: Tetrazolium assays rely on reduction of a dye to a coloured formazan, in cell work by metabolically active cells.)

Series [4] is described as follows: MTT cytotoxicity assay in A549 cells. The note with it: human. The series is classed as cell-based. How it is done:
as §2

Another series deals with DENV1. Nature of the series: DENV1 infectivity inhibition assay in Vero E6 cells. Format: cell-based. The note with it: Dengue virus, DENV1, Vero C1008, read-out: IC50 in the DENV1 infectivity inhibition assay. How it is done:
as §1
Supplemental Figure S25. Infectivity inhbition of DENV1 in Vero E6 cells by active GL conjugates. Cells were infected with DENV1 in the presence and absence of Compounds 3, 6, 11, and 21 at the concentrations of 0.1, 1, and 10 μM, respectively. Treated/infected Vero E6 cells were also analyzed using immunofluorescence staining with anti-DENV2 NS4B antibodies.
Residual infectivity was discovered by the ratio of DENV2 NS4B positive cells to total cells stained with DAPI, and relative inhibition activity was determined based on full infectivity with the subtraction of its residual infectivity.
(1 picture or pasted object on this page, not shown here)

Series [5] has as its system DENV2. Nature of the series: Time-of-addition/compound removal assay with DENV2 in Vero E6 cells. The series is classed as cell-based, Dengue virus type 2. The conditions noted are these: for IC50: Dengue virus, Vero C1008, attachment mode, 4 °C, DENV2, Vero E6 cells; for Stage of DENV2 replication affected (attachment, entry, post-entry modes): time-of-addition/removal, Vero E6 cells. How it is done: Figure 5 Time-of-addition and removal assay for analyzing antiviral action of compounds 3 (A), 6 (B), 11 (C), and 21 (D) in Vero E6 cells. In the attachment mode, cells were pre-cooled and incubated with fresh-prepared mixtures of active compounds with DENV2 at 4 °C for 1 h. After the removal of the mixtures, the cells were kept at 37 °C for 96 h (a cycle of viral replication) and then were performed by immunofluorescent assay plus DAPI staining. In entry and post-entry modes, cells were infected with DENV2 and treated with the compounds simultaneously (the entry stage) or 1-h post-infection (post-entry stage). After a 1 h incubation period, the virus/compound mixture was removed; the cell monolayer was washed with PBS and cultured for 96 h and then subjected to immunofluorescence staining and DAPI. Finally, the inhibition percentage of DENV2 infectivity was calculated as follows: 1-(percentage of NS4B positivity in treated cells/percentage of NS4B positivity in mock-treated cells). *** p < 0.001 compared with the other two antiviral action modes.
The time-of-addition assays consisted of three modes including attachment treatment/removal, entry-treatment/removal, and post-entry treatment/removal modes. In the attachment-treatment/removal mode, Vero E6 cells monolayer in 6-well plate was placed at 4 °C for 2 h and incubated with the fresh-prepared mixture of DENV-2 (MOI = 0.005) with the active compound at indicated concentrations for 2 h at 4 °C, and then washed with phosphate-buffered saline (PBS). In the entry-treatment/removal mode, Vero E6 cells were simultaneously treated with the active compound and infected DENV-2 (MOI = 0.005) in 6-well plates, incubated for 1 h at 37 °C, and then washed with PBS. In the post-entry treatment/removal mode, the cells were infected with DENV-2 for 1 h at 37 °C, treated with the active compounds at indicated concentrations for 1 h at 37 °C, respectively, and then washed by PBS. After active compound removal (washout), the cells were incubated at 37 °C for 96 h, and then were analyzed by immunofluorescent and DAPI staining assay for determining the residual DENV-2 infectivity, as described above. The inhibitory activity of the transient treatment by active compounds on attachment, entry, and post-entry stages of DENV replication in vitro was determined based on the residual infectivity.

Usually CC50 stands for the concentration giving 50% cytotoxicity. Broadly, the IC50 is the concentration at which inhibition is half-maximal. `COC(=O)[C@H](NC(=O)[C@H]1O[C@@H](O[C@H]2[C@H](OC3CC[C@@]4(C)C(CC[C@]5(C)C4C(=O)C=C4C6C[C@@](C)(C(=O)O)CC[C@]6(C)CC[C@]45C)C3(C)C)O[C@H](C(=O)N[C@@H](C(=O)OC)C(C)C)[C@@H](O)[C@@H]2O)[C@H](O)[C@@H](O)[C@@H]1O)C(C)C` (stereo partly drawn) [Compound 3, 3-O-{2-O-[N-(β-D-Glucopyranosyluronoyl)-D-valinemethyl ester]-N-(β-D-glucopyranosyluronoyl)-D-valinemethyl ester}-(3β, 20β)-11-oxo-30-noroleane-12-ene-30-oic Acid]: the inhibition at 10 µM in the series on DENV2 [1] was 75 to 100%; with DENV2 [2], 90.7%. In addition, the CC50 at 96 h in series [3] and in series [4] was more than 100 µM each time. For the same compound, the results for the IC50 in the series on DENV1 and with DENV2 [5] were 2.81 ± 0.54 µM and 1.86 µM, respectively. The “Stage of DENV2 replication affected (attachment, entry, post-entry modes)” value in the series with DENV2 [5] is on record as “mostly affected the virus binding stage to the cell surface in the attachment mode”.
As to `CCOC(=O)[C@H](Cc1ccccc1)NC(=O)[C@H]1O[C@@H](O[C@H]2[C@H](OC3CC[C@@]4(C)C(CC[C@]5(C)C4C(=O)C=C4C6C[C@@](C)(C(=O)O)CC[C@]6(C)CC[C@]45C)C3(C)C)O[C@H](C(=O)N[C@@H](Cc3ccccc3)C(=O)OCC)[C@@H](O)[C@@H]2O)[C@H](O)[C@@H](O)[C@@H]1O` (stereo partly drawn) [Compound 11, 3-O-{2-O-[N-(β-D-Glucopyranosyluronoyl)-L-phenylalanineethyl ester]-N-(β-D-Glucopyranosyluronoyl)-L-phenylalanineethyl ester}-(3β, 20β)-11-oxo-30-noroleane-12-ene-30-oic Acid], the inhibition at 10 µM in the series with DENV2 [1] was 75 to 100%; in the series with DENV2 [2], 91.3%. The IC50 with DENV2 [2] (DENV2, Vero C1008, read-out: Inhibition of DENV2 Infectivity (IC50, μM), Vero E6 cells) was 0.17 to 0.5 µM; in the series with DENV1, 1.25 ± 0.167 µM; with DENV2 [5], 0.18 µM. For the same compound, the CC50 at 96 h in series [3] and in series [4] was more than 100 µM each time. Also, the “Stage of DENV2 replication affected (attachment, entry, post-entry modes)” value with DENV2 [5] was “mostly affected the virus binding stage to the cell surface in the attachment mode”.
